Reference: patent US8134015B2, “Compound inhibiting in vivo phosphorous transport and medicine containing the same” (Kyowa Hakko Kirin Co., Ltd., priority 2003, dated 2012)

Molecular target: T1, rat NaPi-2b (Rattus norvegicus, UniProt Q9JJ09)
T1 construct: expressed in transfected cells; host or cells: Xenopus oocytes injected with cRNA
T1 sequence (Q9JJ09 1-695): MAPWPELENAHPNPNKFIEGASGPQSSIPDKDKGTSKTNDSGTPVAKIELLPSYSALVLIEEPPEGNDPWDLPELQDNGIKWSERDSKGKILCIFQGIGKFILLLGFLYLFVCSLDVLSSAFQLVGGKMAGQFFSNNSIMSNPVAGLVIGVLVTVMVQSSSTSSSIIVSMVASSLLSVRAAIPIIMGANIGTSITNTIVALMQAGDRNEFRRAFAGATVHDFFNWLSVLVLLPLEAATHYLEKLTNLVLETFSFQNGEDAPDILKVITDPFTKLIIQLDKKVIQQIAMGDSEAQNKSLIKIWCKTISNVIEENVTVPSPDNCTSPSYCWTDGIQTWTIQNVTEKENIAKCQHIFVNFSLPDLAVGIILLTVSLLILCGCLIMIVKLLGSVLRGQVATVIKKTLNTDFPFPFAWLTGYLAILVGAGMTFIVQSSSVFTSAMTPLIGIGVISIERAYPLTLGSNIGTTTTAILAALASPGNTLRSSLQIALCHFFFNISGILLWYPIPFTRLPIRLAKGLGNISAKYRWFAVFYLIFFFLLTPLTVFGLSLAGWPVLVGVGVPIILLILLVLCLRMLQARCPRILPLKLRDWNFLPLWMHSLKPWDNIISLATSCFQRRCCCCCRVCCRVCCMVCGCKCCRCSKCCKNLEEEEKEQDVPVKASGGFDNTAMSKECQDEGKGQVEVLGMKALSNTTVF
Assay: Sodium-dependent phosphate uptake of Xenopus oocytes which expressed NaPi-2b (32P)
Assay type: cell-based
Details: Xenopus oocytes expressing rat NaPi-2b, 32P radioactive phosphorus; read-out: IC50 (phosphate uptake inhibitory activity)
Outline: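 Rat NaPi-2b cloned from small-intestine cDNA; cRNA injected into Xenopus oocytes, expression for 2 days. Phosphate uptake inhibition measured with 32P; percent inhibition at 300 μM and 100 μM read from the same inhibition curve.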

Structure (SMILES)	IC50
Cc1ccc(/C=N/NC(=O)c2cc(N3CCCCC3)ccc2NC(=O)c2cccc(CN3CCC(O)CC3)c2)cc1 [Compound 871, 3-(4-Hydroxy-piperidin-1-ylmethyl)-N-[2-(4-methyl-benzylidene-hydrazinocarbonyl)-4-piperidin-1-yl-phenyl]-benzamide]	1 µM
COc1ccc(C(=O)Nc2scc(C)c2C(=O)N/N=C/c2ccc(Cl)c(C(F)(F)F)c2)cc1OC [Compound 522, N-[3-(4-Chloro-3-trifluoromethyl-benzylidene-hydrazinocarbonyl)-4-methyl-thiophen-2-yl]-3,4-dimethoxy-benzamide]	1.09 µM
Cc1cc(/C=N/NC(=O)c2cc(Br)ccc2NC(=O)c2ccncc2)oc1C [Compound 221, N-[4-Bromo-2-(4,5-dimethyl-furan-2-ylmethylene-hydrazinocarbonyl)-phenyl]-isonicotinamide]	9.51 µM
CCN(CC)CCN(C)Cc1cccc(C(=O)Nc2ccc(OCC3CCCCC3)cc2C(=O)N/N=C/c2cccc(F)c2)c1 [Compound 1046, N-[4-Cyclohexylmethoxy-2-(3-fluoro-benzylidene-hydrazinocarbonyl)-phenyl]-3-{[(2-diethylamino-ethyl)-methyl-amino]-methyl}-benzamide]	< 1 µM
CCN(CC)CCN(C)Cc1cccc(C(=O)Nc2c(C)csc2C(=O)N/N=C/c2ccc(C)c(C)c2)c1 [Compound 342, 3-{[(2-Diethylamino-ethyl)-methyl-amino]-methyl}-N-[2-(3,4-dimethyl-benzylidene-hydrazinocarbonyl)-4-methyl-thiophen-3-yl]-benzamide]	32.6 µM
COc1ccc(/C=N/NC(=O)c2cc3ccccc3cc2NC(=O)c2cccc(CN3CCN(CCO)CC3)c2)cc1 [Compound 973, 3-[4-(2-Hydroxy-ethyl)-piperazin-1-ylmethyl]-N-[3-(4-methoxy-benzylidene-hydrazinocarbonyl)-naphthalen-2-yl]-benzamide]	< 3 µM
O=C(Nc1ccc(Br)cc1C(=O)N/N=C/c1ccc(F)cc1)c1ccc(CN2CCC(O)CC2)cc1 [Compound 327, N-[4-Bromo-2-(4-fluoro-benzylidene-hydrazinocarbonyl)-phenyl]-4-(4-hydroxy-piperidin-1-ylmethyl)-benzamide]	5.12 µM
CCN(CC)CCN(C)Cc1cccc(C(=O)Nc2ccc(OCCCN3CCCCC3)cc2C(=O)N/N=C/c2ccc(Cl)c(C(F)(F)F)c2)c1 [Compound 1038, N-[2-(4-Chloro-3-trifluoromethyl-benzylidene-hydrazinocarbonyl)-4-(3-piperidin-1-yl-propoxy)-phenyl]-3-{[(2-diethylamino-ethyl)-methyl-amino]-methyl}-benzamide]	3.35 µM
O=C(Nc1ccc(Cl)cc1C(=O)N/N=C/c1ccc(O)cc1)c1cccc(CN2CCC(N3CCCCC3)CC2)c1 [Compound 377, 3-[1,4′]Bipiperidinyl-1′-ylmethyl-N-[4-chloro-2-(4-hydroxy-benzylidene-hydrazinocarbonyl)-phenyl]-benzamide]	9.65 µM
O=C(Nc1ccc(N2CCSCC2)cc1C(=O)N/N=C/c1ccc(Cl)c(C(F)(F)F)c1)c1cccc(CSCCO)c1 [Compound 927, N-[2-(4-Chloro-3-trifluoromethyl-benzylidene-hydrazinocarbonyl)-4-thiomorpholin-4-yl-phenyl]-3-(2-hydroxy-ethylsulfanylmethyl)-benzamide]	< 1 µM
CCN(CC)CCN(CCN(CC)CC)Cc1cccc(C(=O)Nc2scc(C)c2C(=O)N/N=C/c2ccc(Cl)c(C(F)(F)F)c2)c1 [Compound 842, 3-{[Bis-(2-diethylamino-ethyl)-amino]-methyl}-N-[3-(4-chloro-3-trifluoromethyl-benzylidene-hydrazinocarbonyl)-4-methyl-thiophen-2-yl]-benzamide]	3.22 µM
COc1ccc(/C=N/NC(=O)c2c(NC(=O)c3cccc(CN4CCC(N5CCCCC5)CC4)c3)sc3c2CCCC3)cc1 [Compound 620, 3-[1,4′]Bipiperidinyl-1′-ylmethyl-N-[3-(4-methoxy-benzylidene-hydrazinocarbonyl)-4,5,6,7-tetrahydro-benzo[b]thiophen-2-yl]-benzamide]	3.58 µM
Cc1cccc(/C=N/NC(=O)c2ccccc2NC(=O)c2cc(C)oc2C)c1 [Compound 516, 2,5-Dimethyl-furan-3-carboxylic acid [2-(3-methyl-benzylidene-hydrazinocarbonyl)-phenyl]-amide]	2.13 µM
O=C(Nc1ccc(Br)cc1C(=O)N/N=C/c1ccc(F)cc1)c1ccccn1 [Compound 496, Pyridin-2-carboxylic acid [4-bromo-2-(4-fluoro-benzylidene-hydrazinocarbonyl)-phenyl]-amide]	0.64 µM
Cc1ccc(/C=N/NC(=O)c2cc(Br)ccc2NC(=O)c2cccc(CS(=O)(=O)CCO)c2)cc1 [Compound 676, N-[4-Bromo-2-(4-methyl-benzylidene-hydrazinocarbonyl)-phenyl]-3-(2-hydroxy-ethanesulfonylmethyl)-benzamide]	< 3 µM
CC(O)CN(Cc1cccc(C(=O)Nc2sccc2C(=O)N/N=C/c2ccc(F)cc2)c1)CC(C)O (stereo not shown) [Compound 672, 3-{[Bis-(2-hydroxy-propyl)-amino]-methyl}-N-[3-(4-fluoro-benzylidene-hydrazinocarbonyl)-thiophen-2-yl]-benzamide]	31.2 µM
CCN(CC)CCN(C)Cc1cccc(C(=O)Nc2ccc(OC)cc2C(=O)N/N=C/c2cccc(F)c2)c1 [Compound 1022, 3-{[(2-Diethylamino-ethyl)-methyl-amino]-methyl}-N-[2-(3-fluoro-benzylidene-hydrazinocarbonyl)-4-methoxy-phenyl]-benzamide]	3.23 µM
O=C(Nc1ccc(Br)cc1C(=O)N/N=C/C=C/c1ccccc1)c1ccncc1 [Compound 347, N-[4-Bromo-2-(3-phenyl-allylidene-hydrazinocarbonyl)-phenyl]-isonicotinamide]	4.91 µM
COc1ccc(C(=O)Nc2ccc(OCCCN(C)C)cc2C(=O)N/N=C/c2ccc(F)cc2)cc1OC [Compound 125, N-[4-(3-Dimethylamino-propoxy)-2-(4-fluoro-benzylidene-hydrazinocarbonyl)-phenyl]-3,4-dimethoxy-benzamide]	136 µM
COc1ccc(/C=N/NC(=O)c2c(C)csc2NC(=O)c2cccc(CN3CCC(N4CCCCC4)CC3)c2)cc1 [Compound 574, 3-[1,4′]Bipiperidinyl-1′-ylmethyl-N-[3-(4-methoxy-benzylidene-hydrazinocarbonyl)-4-methyl-thiophen-2-yl]-benzamide]	6.93 µM

Same assay, conditions: phosphate uptake, oocytes expressing rat NaPi-2b; 300 μM, determined from inhibition curve

Structure (SMILES)	inhibition at 300 µM
CCN(CC)CCNCc1cccc(C(=O)Nc2c(C)csc2C(=O)N/N=C/c2ccc(C)cc2)c1 [Compound 537, 3-[(2-Diethylamino-ethylamino)-methyl]-N-[4-methyl-2-(4-methyl-benzylidene-hydrazinocarbonyl)-thiophen-3-yl]-benzamide]	82%
Cc1ccc(/C=N/NC(=O)c2cc(N3CCCC(C(=O)O)C3)ccc2NC(=O)c2cccc(CSCCO)c2)cc1C (stereo not shown) [Compound 934, 1-{3-(3,4-Dimethyl-benzylidene-hydrazinocarbonyl)-4-[3-(2-hydroxy-ethylsulfanylmethyl)-benzoylamino]-phenyl}-piperidine-3-carboxylic acid]	39.3%
